According to PubChem BioAssay (NCI):
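48-hour exposure; five concentrations; linearly interpolated endpoints. Definition used: TGI = concentration required for complete inhibition of growth.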

Experiments:
Experiment in all cases: NCI anticancer screen, dose series, 48 h
XF 498 CNS = test system: XF 498 CNS
HOP-62 NSCLC = test system: HOP-62 NSCLC
MOLT-4 leukemia = test system: MOLT-4 leukemia
ACHN renal = test system: ACHN renal
HCT-15 colon = test system: HCT-15 colon
CAKI-1 renal = test system: CAKI-1 renal
DMS 273 small cell lung = test system: DMS 273 small cell lung
NCI-H23 lung = test system: NCI-H23 lung
UO-31 renal = test system: UO-31 renal
SK-MEL-5 melanoma = test system: SK-MEL-5 melanoma
SK-OV-3 ovarian = test system: SK-OV-3 ovarian
TK-10 renal = test system: TK-10 renal
NCI-H522 lung = test system: NCI-H522 lung
SK-MEL-2 melanoma = test system: SK-MEL-2 melanoma
CCRF-CEM leukemia = test system: CCRF-CEM leukemia
SN12C renal = test system: SN12C renal
UACC-257 melanoma = test system: UACC-257 melanoma
OVCAR-3 ovarian = test system: OVCAR-3 ovarian
MALME-3M melanoma = test system: MALME-3M melanoma
HL-60(TB) leukemia = test system: HL-60(TB) leukemia
A498 renal = test system: A498 renal
KM12 colon = test system: KM12 colon
A549 NSCLC = test system: A549 NSCLC
SF-295 CNS = test system: SF-295 CNS
DLD-1 colon = test system: DLD-1 colon
RXF 393 renal = test system: RXF 393 renal
HCC-2998 colon = test system: HCC-2998 colon
RXF-631 renal = test system: RXF-631 renal
LOX IMVI melanoma = test system: LOX IMVI melanoma
LXFL 529 NSCLC = test system: LXFL 529 NSCLC
OVCAR-5 ovarian = test system: OVCAR-5 ovarian
EKVX NSCLC = test system: EKVX NSCLC
SNB-19 CNS = test system: SNB-19 CNS
SNB-78 CNS = test system: SNB-78 CNS
HT29 colon = test system: HT29 colon
M19-MEL melanoma = test system: M19-MEL melanoma
OVCAR-8 ovarian = test system: OVCAR-8 ovarian
OVCAR-4 ovarian = test system: OVCAR-4 ovarian
786-0 renal = test system: 786-0 renal
RPMI-8226 leukemia = test system: RPMI-8226 leukemia
UACC-62 melanoma = test system: UACC-62 melanoma
SF-539 CNS = test system: SF-539 CNS
SNB-75 CNS = test system: SNB-75 CNS
M14 melanoma = test system: M14 melanoma
U251 CNS = test system: U251 CNS
NCI-H460 lung = test system: NCI-H460 lung
HOP-92 NSCLC = test system: HOP-92 NSCLC
DMS 114 small cell lung = test system: DMS 114 small cell lung
SK-MEL-28 melanoma = test system: SK-MEL-28 melanoma
HCT-116 colon = test system: HCT-116 colon
IGROV1 ovarian = test system: IGROV1 ovarian
SW-620 colon = test system: SW-620 colon
SF-268 CNS = test system: SF-268 CNS
COLO 205 colon = test system: COLO 205 colon
K-562 leukemia = test system: K-562 leukemia
SR leukemia = test system: SR leukemia
NCI-H226 lung = test system: NCI-H226 lung
KM20L2 colon = test system: KM20L2 colon
HOP-18 NSCLC = test system: HOP-18 NSCLC

Measured: TGI

CC1=C2C=CC(=O)C[C@@]2(C)CCC1
not listed: SR leukemia | NCI-H226 lung | KM20L2 colon | HOP-18 NSCLC
> 100 µM: all other assays above

CSc1nnc(C(C#N)C#N)nn1
not listed: ACHN renal | SK-MEL-2 melanoma | SK-MEL-28 melanoma | HOP-18 NSCLC
> 100 µM: all other assays above

COc1ccc2c(c1)[n+]([O-])c(-c1ccccc1Cl)c(N)[n+]2[O-]
31.3 µM: NCI-H522 lung
32.6 µM: COLO 205 colon
not listed: XF 498 CNS | TK-10 renal | CCRF-CEM leukemia | RXF 393 renal | HCC-2998 colon | LOX IMVI melanoma | UACC-62 melanoma
> 100 µM: all other assays above

N#COc1ccc(Oc2ccc(OC#N)cc2)cc1
54 µM: COLO 205 colon
50.4 µM: CCRF-CEM leukemia
92.7 µM: DMS 114 small cell lung
33.9 µM: LOX IMVI melanoma
50.1 µM: SR leukemia
not listed: DMS 273 small cell lung | SW-620 colon
> 100 µM: all other assays above
